In US12655116B2, “Substituted isophthalic acid diamides” (Bayer Aktiengesellschaft, priority 2020, dated 2026):

Legend:
ABUTH [1] = assay: Pre-emergence herbicidal action against ABUTH; format: in vivo, Abutilon theophrasti
Summary of the method: (§1)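 Sandy loam pots, seeds covered with soil, then surface-treated with WP or EC formulations at 600–800 l/ha water plus 0.2% wetting agent. Greenhouse, 3 weeks. Percent damage vs untreated controls.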

ALOMY [2] = assay: Pre-emergence herbicidal action against ALOMY; format: in vivo, Alopecurus myosuroides; details: pre-emergence
Summary of the method: as §1

AMARE [3] = assay: Pre-emergence herbicidal action against AMARE; format: in vivo, Amaranthus retroflexus
Summary of the method: as §1

AVEFA [4] = assay: Pre-emergence herbicidal action against AVEFA; format: in vivo, Avena fatua; details: 80 g/ha, pre-emergence
Summary of the method: as §1

ECHCG [5] = assay: Pre-emergence herbicidal action against ECHCG; format: in vivo, Echinochloa crus-galli; details: 80 g/ha
Summary of the method: as §1

HORMU = assay: Pre-emergence herbicidal action against HORMU; format: in vivo, Hordeum murinum; details: 80 g/ha, pre-emergence
Excerpt: Seeds of monocotyledonous and dicotyledonous weed plants and crop plants are laid out in sandy loam soil in wood-fiber pots and covered with soil. The compounds of the invention, formulated in the form of wettable powders (WP) or as emulsion concentrates (EC), are then applied to the surface of the covering soil in the form of an aqueous suspension or emulsion at a water application rate equivalent to 600 to 800 l/ha, with addition of 0.2% wetting agent. After the treatment, the pots are placed in a greenhouse and kept under good growth conditions for the trial plants. The damage to the test plants is scored visually after a test period of 3 weeks by comparison with untreated controls (herbicidal activity in percent (%): 100% activity=the plants have died, 0% activity=like control plants). […] The tables below illustrate, in an illustrative manner, the post-emergence herbicidal action of the compounds of the invention, the herbicidal activity being stated in percent.

LOLRI = assay: Pre-emergence herbicidal action against LOLRI; format: in vivo, Lolium rigidum; details: 80 g/ha
Summary of the method: as §1

MATIN [6] = assay: Pre-emergence herbicidal action against MATIN; format: in vivo, Matricaria inodora
Summary of the method: as §1

POLCO = assay: Pre-emergence herbicidal action against POLCO; format: in vivo, Polygonum convolvulus; details: Fallopia convolvulus, 504 h, dosage 80 g/ha
Summary of the method: as §1

SETVI [7] = assay: Pre-emergence herbicidal action against SETVI; format: in vivo, Setaria viridis
Summary of the method: as §1

STEME [8] = assay: Pre-emergence herbicidal action against STEME; format: in vivo, Stellaria media
Summary of the method: as §1

VIOTR [9] = assay: Pre-emergence herbicidal action against VIOTR; format: in vivo, Viola tricolor
Summary of the method: as §1

DIGSA [10] = assay: Pre-emergence herbicidal action against DIGSA; format: in vivo, Digitaria sanguinalis
Summary of the method: as §1

ABUTH [11] = assay: Post-emergence herbicidal action against ABUTH; format: in vivo, Abutilon theophrasti; details: visual assessment about 3 weeks after treatment vs untreated controls
Summary of the method: (§2)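 Visual % rating (0% = as untreated, 100% = dead) ~3 wk after spraying one-leaf-stage plants grown in sandy loam; WP/EC in water at 600–800 l/ha, 0.2% wetting agent.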

ALOMY [12] = assay: Post-emergence herbicidal action against ALOMY; format: in vivo, Alopecurus myosuroides; details: dosage 20 g/ha, visual assessment about 3 weeks after treatment vs untreated controls
Summary of the method: as §2

AMARE [13] = assay: Post-emergence herbicidal action against AMARE; format: in vivo, Amaranthus retroflexus; details: 20 g/ha, visual assessment about 3 weeks after treatment, 100% = plants have died, 0% = like control plants
Summary of the method: as §2

AVEFA [14] = assay: Post-emergence herbicidal action against AVEFA; format: in vivo, Avena fatua; details: Avena fatua, 504 h, visual assessment about 3 weeks after treatment, 100% = plants have died, 0% = like control plants
Summary of the method: as §2

ECHCG [15] = assay: Post-emergence herbicidal action against ECHCG; format: in vivo, Echinochloa crus-galli
Summary of the method: as §2

MATIN [16] = assay: Post-emergence herbicidal action against MATIN; format: in vivo, Matricaria inodora
Summary of the method: as §2

PHBPU [17] = assay: Post-emergence herbicidal action against PHBPU; format: in vivo, Pharbitis purpurea; details: Ipomoea purpurea, 504 h
Summary of the method: as §2

SETVI [18] = assay: Post-emergence herbicidal action against SETVI; format: in vivo, Setaria viridis
Summary of the method: as §2

STEME [19] = assay: Post-emergence herbicidal action against STEME; format: in vivo, Stellaria media
Summary of the method: as §2

VERPE [20] = assay: Post-emergence herbicidal action against VERPE; format: in vivo, Veronica persica; details: Veronica persica, 504 h, 20 g/ha
Summary of the method: as §2

VIOTR [21] = assay: Post-emergence herbicidal action against VIOTR; format: in vivo, Viola tricolor; details: Viola tricolor, 504 h
Summary of the method: as §2

DIGSA [22] = assay: Post-emergence herbicidal action against DIGSA; format: in vivo, Digitaria sanguinalis
Summary of the method: as §2

PHBPU [23] = assay: Pre-emergence herbicidal action against PHBPU; format: in vivo, Pharbitis purpurea; details: dosage 80 g/ha
Summary of the method: as §1

VERPE [24] = assay: Pre-emergence herbicidal action against VERPE; format: in vivo, Veronica persica; details: dosage 80 g/ha
Summary of the method: as §1

[25] = Tripleurospermum inodorum, 504 h, dosage 20 g/ha
[26] = Setaria viridis, 504 h, dosage 20 g/ha
[27] = 80 g/ha, scored visually after 3 weeks vs untreated controls (100% = plants have died, 0% = like control plants)

CCNC(=O)c1c(C(F)(F)F)ccc(C(=O)Nc2nnnn2CC)c1Br [Example 2-208]
pest or weed control at 80 g/ha (ABUTH [1]; Abutilon theophrasti, 504 h, 80 g/ha, scored visually after 3 weeks vs untreated controls (100% = plants have died, 0% = like control plants)): 100%
pest or weed control at 20 g/ha (ABUTH [1]; Abutilon theophrasti, 504 h, dosage 20 g/ha, scored visually after 3 weeks vs untreated controls, 100% = plants have died, 0% = like control plants, read-out: Pre-emergence action against ABUTH (herbicidal activity in percent)): 100%
pest or weed control at 80 g/ha (ALOMY [2]; Alopecurus myosuroides, 504 h, 80 g/ha, scored visually after 3 weeks vs untreated controls (100% = plants have died, 0% = like control plants)): 90%
pest or weed control at 20 g/ha (ALOMY [2]; Alopecurus myosuroides, 504 h, 20 g/ha, scored visually after 3 weeks, 100% = plants have died, 0% = like control plants): 80%
pest or weed control at 20 g/ha (AMARE [3]; Amaranthus retroflexus, 504 h, 20 g/ha, scored visually after 3 weeks vs untreated controls, 100% = plants have died, 0% = like control plants): 100%
pest or weed control at 80 g/ha (AMARE [3]; Amaranthus retroflexus, 504 h, 80 g/ha, scored visually after 3 weeks vs untreated controls, 100% = plants have died, 0% = like control plants): 100%
pest or weed control at 80 g/ha (AVEFA [4]; Avena fatua, 504 h): 100%
pest or weed control at 80 g/ha (ECHCG [5]; Echinochloa crus-galli, 504 h): 100%
pest or weed control at 80 g/ha (HORMU; Hordeum murinum, 504 h): 90%
pest or weed control at 80 g/ha (LOLRI; Lolium rigidum, 504 h): 80%
pest or weed control at 20 g/ha (MATIN [6]; [25]): 100%
pest or weed control at 80 g/ha (MATIN [6]; Tripleurospermum inodorum, 504 h, dosage 80 g/ha): 100%
pest or weed control at 80 g/ha (POLCO): 90%
pest or weed control at 20 g/ha (SETVI [7]; [26]): 80%
pest or weed control at 80 g/ha (SETVI [7]; Setaria viridis, 504 h, dosage 80 g/ha): 100%
pest or weed control at 20 g/ha (STEME [8]; Stellaria media, 504 h, dosage 20 g/ha): 100%
pest or weed control at 80 g/ha (STEME [8]; Stellaria media, 504 h, dosage 80 g/ha): 100%
pest or weed control at 20 g/ha (VIOTR [9]; Viola tricolor, 504 h, dosage 20 g/ha): 100%
pest or weed control at 80 g/ha (VIOTR [9]; Viola tricolor, 504 h, dosage 80 g/ha): 100%
pest or weed control at 20 g/ha (DIGSA [10]; Digitaria sanguinalis, 504 h, dosage 20 g/ha): 90%
pest or weed control at 80 g/ha (DIGSA [10]; Digitaria sanguinalis, 504 h, dosage 80 g/ha): 100%
pest or weed control at 5 g/ha (ABUTH [11]; Abutilon theophrasti, 504 h, dosage 5 g/ha): 90%
pest or weed control at 20 g/ha (ABUTH [11]; Abutilon theophrasti, 504 h, dosage 20 g/ha): 90%
pest or weed control at 20 g/ha (ALOMY [12]; Alopecurus myosuroides, 504 h): 80%
pest or weed control at 20 g/ha (AMARE [13]; Amaranthus retroflexus, 504 h): 100%
pest or weed control at 5 g/ha (AVEFA [14]; 5 g/ha): 80%
pest or weed control at 20 g/ha (AVEFA [14]; 20 g/ha): 90%
pest or weed control at 20 g/ha (ECHCG [15]; Echinochloa crus-galli, 504 h, dosage 20 g/ha): 80%
pest or weed control at 20 g/ha (MATIN [16]; [25]): 80%
pest or weed control at 5 g/ha (PHBPU [17]; dosage 5 g/ha): 80%
pest or weed control at 20 g/ha (PHBPU [17]; dosage 20 g/ha): 80%
pest or weed control at 5 g/ha (SETVI [18]; Setaria viridis, 504 h, dosage 5 g/ha): 80%
pest or weed control at 20 g/ha (SETVI [18]; [26]): 80%
pest or weed control at 20 g/ha (STEME [19]; Stellaria media, 504 h, 20 g/ha): 100%
pest or weed control at 5 g/ha (STEME [19]; Stellaria media, 504 h, dosage 5 g/ha): 80%
pest or weed control at 20 g/ha (VERPE [20]): 80%
pest or weed control at 5 g/ha (VIOTR [21]; 5 g/ha): 100%
pest or weed control at 20 g/ha (VIOTR [21]; 20 g/ha): 100%
pest or weed control at 5 g/ha (DIGSA [22]; Digitaria sanguinalis, 504 h, 5 g/ha): 80%
pest or weed control at 20 g/ha (DIGSA [22]; Digitaria sanguinalis, 504 h, 20 g/ha): 90%

CCc1c(C(=O)Nc2nnnn2CC)ccc(C(F)(F)F)c1C(=O)NC1CC1 [Example 2-273]
Pre-emergence action against ABUTH (herbicidal activity) (ABUTH [1]; [27]): 90%
Pre-emergence action against ABUTH (herbicidal activity in percent) (ABUTH [1]; dosage 20 g/ha, scored visually after 3 weeks vs untreated controls, 100% = plants have died, 0% = like control plants): 90%
Pre-emergence action against ALOMY (herbicidal activity) (ALOMY [2]; [27]): 90%
Pre-emergence action against AMARE in % (AMARE [3]; 20 g/ha, scored visually after 3 weeks vs untreated controls, 100% = plants have died, 0% = like control plants): 90%
Pre-emergence action against AMARE in % (AMARE [3]; [27]): 100%
Pre-emergence action against AVEFA in % (AVEFA [4]): 90%
Pre-emergence action against ECHCG in % (ECHCG [5]): 90%
Pre-emergence action against HORMU in % (HORMU): 80%
Pre-emergence action against LOLRI in % (LOLRI): 80%
Pre-emergence action against MATIN in % (MATIN [6]; dosage 20 g/ha): 100%
Pre-emergence action against MATIN in % (MATIN [6]; dosage 80 g/ha): 100%
Pre-emergence action against PHBPU in % (PHBPU [23]): 90%
Pre-emergence action against SETVI in % (SETVI [7]; dosage 20 g/ha): 80%
Pre-emergence action against SETVI in % (SETVI [7]; dosage 80 g/ha): 90%
Pre-emergence action against STEME in % (STEME [8]; dosage 20 g/ha): 90%
Pre-emergence action against STEME in % (STEME [8]; dosage 80 g/ha): 90%
Pre-emergence action against VERPE in % (VERPE [24]): 100%
Pre-emergence action against VIOTR in % (VIOTR [9]; dosage 20 g/ha): 90%
Pre-emergence action against VIOTR in % (VIOTR [9]; dosage 80 g/ha): 100%
Pre-emergence action against DIGSA in % (DIGSA [10]; dosage 20 g/ha): 100%
Pre-emergence action against DIGSA in % (DIGSA [10]; dosage 80 g/ha): 100%
Post-emergence action against ABUTH in % (ABUTH [11]; dosage 5 g/ha): 90%
Post-emergence action against ABUTH in % (ABUTH [11]; dosage 20 g/ha): 90%
Post-emergence action against ALOMY in % (ALOMY [12]): 80%
Post-emergence action at 20 g/ha against AMARE in % (AMARE [13]): 90%
Post-emergence action against ECHCG in % (ECHCG [15]; dosage 5 g/ha): 80%
Post-emergence action against ECHCG in % (ECHCG [15]; dosage 20 g/ha): 90%
Post-emergence action against MATIN in % (MATIN [16]; dosage 5 g/ha): 80%
Post-emergence action against MATIN in % (MATIN [16]; dosage 20 g/ha): 90%
Post-emergence action against SETVI in % (SETVI [18]; dosage 5 g/ha): 80%
Post-emergence action against SETVI in % (SETVI [18]; dosage 20 g/ha): 90%
Post-emergence action against STEME in % (STEME [19]; 20 g/ha): 90%
Post-emergence action against STEME in % (STEME [19]; dosage 5 g/ha): 80%
Post-emergence action against DIGSA in % (DIGSA [22]; 5 g/ha): 80%
Post-emergence action against DIGSA (DIGSA [22]; 20 g/ha): 90%
